Results published in patent publication US20240409475A1, “INTERMEDIATE-RELEASE FERTILIZERS AND METHODS FOR MAKING SAME” (OSTARA NUTRIENT RECOVERY TECHNOLOGES INC., priority 2021, published 2024).

Test system: canola
Assay: canola germination as a function of phosphate application rate
Format: in vivo
Details: media containing increasing concentrations of phosphate application
Source text: FIG. 8 is a graph showing germination rate for canola as a function of phosphate applicant rate for various sources of phosphorus listed in Table 2.

| SMILES | germination of canola seedlings |
| --- | --- |
| N.O=P(O)(O)O [MAP, Mono-Ammonium Phosphate] | inhibited at even the lowest application rate |
| N.N.O=P(O)(O)O [DAP, Di-Ammonium Phosphate] | inhibited at even the lowest application rate |
